According to patent US10179769B2, “Histone demethylase inhibitors” (CELGENE QUANTICEL RESEARCH, INC., priority 2012, dated 2019):

target: JMJD2C (Homo sapiens (Human), UniProt Q9H3R0); assay: JMJD2C TR-FRET enzyme inhibition assay; assay type: biochemical; settings: H3K9me3-biotin peptide
Excerpt: This assay determines the ability of a test compound to inhibit Jarid1A, Jarid1B, and JMJD2C demethylase activity. Baculovirus expressed Jarid1A (GenBank Accession #NM_001042603, AA1-1090) was purchased from BPS Bioscience (Cat#50110). Baculovirus expressed Jarid1B (GenBank Accession #NM_006618, AA 2-751) was purchased from BPS Bioscience (Cat #50121) or custom made by MolecularThroughput. Baculovirus-expressed JMJD2C (GenBank Accession #BC143571, AA 2-372) was purchased from BPS Bioscience (Cat#50105).
The ability of test compounds to inhibit the activity of JMJD2C was determined in 384-well plate format under the following reaction conditions: 0.3 nM JMJD2C, 300 nM H3K9me3-biotin labeled peptide (Anaspec cat #64360), 2 μM alpha-ketoglutaric acid in assay buffer of 50 mM HEPES, pH7.3, 0.005% Brij35, 0.5 mM TCEP, 0.2 mg/ml BSA, 50 μM sodium L-ascorbate, and 2 μM ammonium iron(II) sulfate. Reaction product was determined quantitatively by TR-FRET after the addition of detection reagent Phycolink Streptavidin-allophycocyanin (Prozyme) and Europium-anti-di-methylated histone H3 lysine 9 (H3K9me2) antibody (PerkinElmer) in the presence of 5 mM EDTA in LANCE detection buffer (PerkinElmer) at a final concentration of 50 nM and 1 nM, respectively.
The reaction mixture was incubated at room temperature for 30 min, and terminated by the addition of 6 μl of 5 mM EDTA in LANCE detection buffer containing 100 nM Phycolink Streptavidin-allophycocyanin and 2 nM Europium-anti-H3K9me2 antibody. Plates were read by EnVisionMultilabel Reader in TR-FRET mode (excitation at 320 nm, emission at 615 nm and 665 nm) after 1 hr incubation at rt. A ratio was calculated (665/615) for each well and fitted to determine inhibition constant (IC50).

JMJD2C, sequence (Q9H3R0 2-372): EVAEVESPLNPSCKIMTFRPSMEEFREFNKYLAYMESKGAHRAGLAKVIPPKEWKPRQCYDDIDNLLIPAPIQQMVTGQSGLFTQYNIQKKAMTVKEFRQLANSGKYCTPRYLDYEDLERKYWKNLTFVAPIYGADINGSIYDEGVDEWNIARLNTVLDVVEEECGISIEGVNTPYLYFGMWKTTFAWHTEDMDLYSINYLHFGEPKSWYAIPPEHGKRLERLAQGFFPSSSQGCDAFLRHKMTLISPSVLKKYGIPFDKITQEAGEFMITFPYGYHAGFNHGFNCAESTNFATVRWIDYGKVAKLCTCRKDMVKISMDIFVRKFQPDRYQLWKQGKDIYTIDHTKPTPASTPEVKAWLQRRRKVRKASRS

Substance	IC50
3-{[(6-chloro-1,2,3,4-tetrahydronaphthalen- 1-yl)methyl]-amino}pyridine-4- carboxylic acid [Example 68]	100 to 1000 nM
3-{[(6-chloro-1-hydroxy-1,2,3,4- tetrahydronaphthalen-1-yl)methyl]amino} pyridine-4-carboxylic acid [Example 67]	100 to 1000 nM
3-{[(7-fluoro-3,4-dihydro-2H-chromen-4- yl)methyl]-amino}pyridine-4-carboxylic acid [Example 65]	< 100 nM
